According to patent publication US20230295574A1, “GINGIVAL TISSUES AND METHODS OF PREPARATION THEREOF” (National University of Singapore, priority 2020, published 2023):

Legend:
[1] = system: lamina propria equivalents; assay: Mucosal irritation of mouthwashes on lamina propria equivalents (oral ulcer model)
Description: Oral ulcers are one of the most common disturbances in the oral cavity. Since, the oral ulcers is devoid of the overlying epithelium, the barrier function provided by the epithelium is lost. […] To evaluate the use of 3D cultured lamina propria equivalents as a model of oral ulcers, we investigated the impact of 2 commercially available mouthwashes for mucosal irritation. To mimic the actual use case scenario, gingival tissue equivalents (surface area 0.78 cm^2) were exposed to 130 μl alcohol-free (Listerine® Gum care Zero) or alcohol-based (Listerine® Cool Mint) mouthwashes for 30 secs, washed, and cultured. After 10 hours, the tissues were re-exposed to the respective mouthwash, washed and cultured for 24 hours. Phosphate buffered saline (PBS) and 1% sodium lauryl sulphate was used as negative and positive controls respectively. Based on the OECD TG439 guidelines, 50% cellular viability was set as threshold for classification of mucosal irritation.

[2] = system: Gingiva-FT gingival tissue equivalents; assay: Mucosal irritation and barrier integrity of mouthwashes on intact Gingiva-FT
Description: To evaluate the use of 3D cultured gingival tissue equivalents of the present invention for mucosal irritation, we investigated the impact of 2 commercially available mouthwashes. To mimic the actual use case scenario, gingival tissue equivalents (surface area 0.78 cm^2) were exposed to 130 μl alcohol-free (Listerine® Gum care Zero) or alcohol-based (Listerine® Cool Mint) mouthwashes for 30 secs, washed, and cultured. After 10 hours, the tissues were re-exposed to the respective mouthwash, washed and cultured for 24 hours. Phosphate buffered saline (PBS) and 1% sodium lauryl sulphate was used as negative and positive controls respectively. Based on the OECD TG439 guidelines, 50% cellular viability was set as threshold for classification of mucosal irritants.

[3] = system: Gingiva-FT gingival tissue equivalents; assay: Mucosal corrosion on Gingiva-FT (OECD TG431); type: cell-based, human; conditions: for tissue disruption: Gingiva-FT
Description: Some excipients used to incorporate the actives and formulate oral/dental care products and pharmaceuticals, have the potential to cause mucosal corrosion similar to caustic substances like acids and bases. […] Based on the OECD TG431 guidelines, 50% and 15% cellular viability was set as thresholds for 3 min and 60 min exposures respectively.

[4] = lamina propria equivalents, exposure 30 secs twice, 24 hours culture
[5] = exposure 30 secs twice, 24 hours culture

SMILES: CCCCCCCCCCCCOS(=O)(=O)[O-].[Na+] [1% sodium lauryl sulphate, sodium lauryl sulphate]
- cellular viability ([1]; lamina propria equivalents (ulcer model), exposure 30 secs, re-exposed after 10 hours, cultured 24 hours, 50% threshold (OECD TG439)): < 50%
- TUNEL staining (apoptosis/cell death) [1, 4]: TUNEL positivity
- cytotoxicity (LDH assay) [1, 4]: markedly increased cytotoxicity
- tissue disruption [1, 4]: significant tissue disruption
- TUNEL staining (apoptosis/cell death) [2, 5]: TUNEL positivity
- cytotoxicity (LDH assay) [2, 5]: markedly increased cytotoxicity
- tissue / epithelial disruption [2, 5]: significant tissue disruption
- cellular viability ([2]; exposure 30 secs, re-exposed after 10 hours, cultured 24 hours, 50% threshold (OECD TG439)): < 50%

SMILES: O=P(O)(O)O [37% phosphoric acid, phosphoric acid]
- tissue disruption ([3]; 3 min exposure): tissue disruption
- tissue disruption ([3]; 60 min exposure): almost complete lysis of the tissues
- mucosal corrosion classification ([3]; OECD TG431): corrosive (category 1A)
